ChEMBL document CHEMBL1201862, “PubChem BioAssay data set” (2004)
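Assay format: 96-well plates, 48-hour exposure. Abbreviation: GI50, concentration required for 50% inhibition of growth.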 Active and inactive are the calls of the source. Rule as the data show it: active = GI50 up to about 1.1 µM and inactive = higher.

How the values were obtained:
Assay in all cases: NCI-60 cell line screen, 48 h
786-0 = system: 786-0
A498 = system: A498
A549 = system: A549
ACHN = system: ACHN
BT-549 = system: BT-549
CAKI-1 = system: CAKI-1
CCRF-CEM = system: CCRF-CEM
COLO 205 = system: COLO 205
DLD-1 = system: DLD-1
DMS-114 = system: DMS-114
DMS-273 = system: DMS-273
DU-145 = system: DU-145
EKVX = system: EKVX
HCC 2998 = system: HCC 2998
HCT-116 = system: HCT-116
HCT-15 = system: HCT-15
HL-60 = system: HL-60
HOP-62 = system: HOP-62
HOP-92 = system: HOP-92
HT-29 = system: HT-29
Hs-578T = system: Hs-578T
IGROV-1 = system: IGROV-1
K562 = system: K562
KM-20L2 = system: KM-20L2
KM12 = system: KM12
LOX IMVI = system: LOX IMVI
LXFL 529 = system: LXFL 529
M14 = system: M14
M19-MEL = system: M19-MEL
MCF7 = system: MCF7
MDA-MB-231 = system: MDA-MB-231
MDA-MB-435 = system: MDA-MB-435
MDA-N = system: MDA-N
MOLT-4 = system: MOLT-4
Malme-3M = system: Malme-3M
NCI-H226 = system: NCI-H226
NCI-H23 = system: NCI-H23
NCI-H460 = system: NCI-H460
NCI-H522 = system: NCI-H522
NCI/ADR-RES = system: NCI/ADR-RES
OVCAR-3 = system: OVCAR-3
OVCAR-4 = system: OVCAR-4
OVCAR-5 = system: OVCAR-5
OVCAR-8 = system: OVCAR-8
PC-3 = system: PC-3
RPMI-8226 = system: RPMI-8226
RXF 393 = system: RXF 393
SF-268 = system: SF-268
SF-295 = system: SF-295
SF-539 = system: SF-539
SK-MEL-28 = system: SK-MEL-28
SK-MEL-2 = system: SK-MEL-2
SK-MEL-5 = system: SK-MEL-5
SK-OV-3 = system: SK-OV-3
SN12C = system: SN12C
SNB-19 = system: SNB-19
SNB-75 = system: SNB-75
SNB-78 = system: SNB-78
SR = system: SR
SW-620 = system: SW-620
T47D = system: T47D
TK-10 = system: TK-10
U-251 = system: U-251
UACC-257 = system: UACC-257
UACC-62 = system: UACC-62
UO-31 = system: UO-31
XF498 = system: XF498
HOP-18 = system: HOP-18

Measured: GI50

C[C@]12C=CC(=O)C=C1[C@@H](F)C[C@H]1[C@@H]3CC[C@](O)(C(=O)CO)[C@@]3(C)C[C@H](O)[C@@]12F
inactive: 786-0 > 100 µM | A498 > 100 µM | A549 > 100 µM | ACHN > 100 µM | BT-549 > 100 µM | CAKI-1 > 100 µM | COLO 205 > 100 µM | DLD-1 > 100 µM | DMS-114 > 100 µM | DMS-273 > 100 µM | DU-145 > 100 µM | EKVX > 64.4 µM | HCC 2998 > 100 µM | HCT-116 > 100 µM | HL-60 > 100 µM | HOP-62 > 100 µM | HOP-92 > 100 µM | HT-29 > 100 µM | Hs-578T > 100 µM | IGROV-1 > 100 µM | K562 > 100 µM | KM-20L2 > 100 µM | KM12 > 100 µM | LOX IMVI > 100 µM | LXFL 529 > 100 µM | M14 > 100 µM | M19-MEL > 100 µM | MCF7 > 100 µM | MDA-MB-231 > 100 µM | MDA-MB-435 > 100 µM | MDA-N > 100 µM | MOLT-4 > 100 µM | Malme-3M > 100 µM | NCI-H226 52.6 µM | NCI-H23 > 100 µM | NCI-H460 > 100 µM | NCI-H522 > 100 µM | NCI/ADR-RES > 100 µM | OVCAR-3 > 100 µM | OVCAR-4 > 100 µM | OVCAR-5 > 59.6 µM | OVCAR-8 > 100 µM | PC-3 > 100 µM | RPMI-8226 > 87.5 µM | RXF 393 > 85.5 µM | SF-268 > 100 µM | SF-295 > 100 µM | SF-539 > 100 µM | SK-MEL-28 > 100 µM | SK-MEL-2 > 100 µM | SK-MEL-5 > 100 µM | SK-OV-3 3.33 µM | SN12C > 100 µM | SNB-19 > 100 µM | SNB-75 > 100 µM | SNB-78 > 84.1 µM | SR > 100 µM | SW-620 > 100 µM | T47D > 100 µM | TK-10 > 100 µM | U-251 > 100 µM | UACC-257 > 100 µM | UACC-62 > 100 µM | UO-31 > 100 µM | XF498 97.7 µM
> 100 µM: HCT-15
active: CCRF-CEM 0.543 µM

Fc1ccccc1C1CC(c2ccc3ccccc3c2)=Nc2ccccc2S1 (stereo not drawn)
inactive: 786-0 > 100 µM | A498 > 100 µM | A549 > 100 µM | ACHN > 100 µM | CAKI-1 > 100 µM | CCRF-CEM > 100 µM | COLO 205 > 100 µM | DMS-273 > 100 µM | EKVX > 100 µM | HCC 2998 4.27 µM | HCT-116 > 100 µM | HL-60 > 100 µM | HOP-18 > 100 µM | HOP-62 > 100 µM | HT-29 > 100 µM | IGROV-1 > 100 µM | K562 > 10 µM | KM-20L2 > 100 µM | KM12 > 100 µM | LOX IMVI > 100 µM | LXFL 529 > 100 µM | M14 > 100 µM | M19-MEL > 100 µM | MOLT-4 > 100 µM | Malme-3M > 100 µM | NCI-H226 > 100 µM | NCI-H23 > 100 µM | NCI-H460 > 100 µM | NCI-H522 > 100 µM | OVCAR-3 > 100 µM | OVCAR-4 > 100 µM | OVCAR-5 > 100 µM | OVCAR-8 > 100 µM | RXF 393 > 100 µM | SF-268 > 100 µM | SF-295 > 100 µM | SF-539 > 100 µM | SK-MEL-28 > 100 µM | SK-MEL-2 > 100 µM | SK-OV-3 > 100 µM | SN12C > 100 µM | SNB-19 > 100 µM | SNB-78 > 100 µM | SR > 100 µM | SW-620 > 100 µM | TK-10 > 100 µM | U-251 > 100 µM | UACC-257 > 100 µM | UACC-62 > 100 µM | UO-31 > 100 µM | XF498 > 100 µM
